This is an account of results in patent US11000505B2 (priority 2010, dated 2021).

For series [1], the system named is pial artery. The settings on record: pig, in vivo.
For series [2], the target named is T1, cloned rat kappa receptor (Rattus norvegicus, UniProt P34975).
T1 construct: expressed in transfected cells; host or cells: HEK cells (NIMH PDSP)
Description: biochemical. In kind it is binding.

The test system of series [3] is mu, kappa and delta receptors. The settings on record: competition binding assays; cited from earlier work.
Series [4] concerns cAMP. Description: cAMP in CSF by ELISA (Example 7). In kind it is in vivo, newborn pigs. The source says: Newborn pigs (aged up to 6 days, 1.1-2.0 kg) of both genders were used for this study. Protocols were approved by the Institutional Animal Care and Use Committee of the University of Pennsylvania (Philadelphia). The newborn piglet model was used because its brain is gyrencepahalic and contains more white matter than grey matter, which is similar to that of humans. Furthermore, the head is large enough for the insertion of a cranial window and vascular visualization. Animals were induced with isoflurane (1-2 minimum alveolar concentration) and maintained with α-chloralose (80-100 mg/kg supplemented with 5 mg/kg·h, IV). Both femoral arteries were catheterized to monitor blood pressure and blood gas to maintain a constant carbon dioxide and pH. A catheter was inserted into the right femoral vein for medication administration. Animals were ventilated with room air after tracheal intubation. A heating pad was used to maintain the rectal temperature of animals at 37-39° C. A closed cranial window on the top of the head of the piglet was placed for direct pial artery visualization and diameter measurement. The closed cranial window consisted of three parts: a stainless steel ring, a circular glass cover slip, and three ports consisting of 17-gauge hypodermic needles attached to three precut holes in the stainless steel ring. CSF was collected through a cranial window port for cAMP measurement in some animals. […] Vascular diameter was measured from a video monitor that was connected to the camera with a video microscaler (VPA 550; For-A-Corp., Los Angeles, Calif.) by the investigator who administered the medication.
The cerebral cortical periarachnoid CSF samples were collected before and 10 min afterward administration of herkinorin and NTP to measure the cAMP level. […] Commercially available ELISA kits (Assay Designs, Ann Arbor, Mich.) were used to quantify cAMP concentrations.

Series [5] concerns pial artery. The settings on record: pig, in vivo. This is another data set of the same source.
The target in series [6] is T2, cloned human mu receptor (Homo sapiens, UniProt P35372).
T2 construct: expressed in transfected cells; host or cells: HEK cells (NIMH PDSP)
The series is described as follows: In-vitro affinity determination, [3H]DAMGO competition. In kind it is binding.

Series [7] deals with pial artery. Type of series: in vivo, newborn pigs. The settings on record: pig, in vivo.
The subject of series [8] is pial artery. Type of series: in vivo, piglets. The note with it: in vivo.

Where “and” joins values, the source holds several entries; their conditions need not be identical. Equal values may be shown once.

T2 sequence (P35372 whole entry): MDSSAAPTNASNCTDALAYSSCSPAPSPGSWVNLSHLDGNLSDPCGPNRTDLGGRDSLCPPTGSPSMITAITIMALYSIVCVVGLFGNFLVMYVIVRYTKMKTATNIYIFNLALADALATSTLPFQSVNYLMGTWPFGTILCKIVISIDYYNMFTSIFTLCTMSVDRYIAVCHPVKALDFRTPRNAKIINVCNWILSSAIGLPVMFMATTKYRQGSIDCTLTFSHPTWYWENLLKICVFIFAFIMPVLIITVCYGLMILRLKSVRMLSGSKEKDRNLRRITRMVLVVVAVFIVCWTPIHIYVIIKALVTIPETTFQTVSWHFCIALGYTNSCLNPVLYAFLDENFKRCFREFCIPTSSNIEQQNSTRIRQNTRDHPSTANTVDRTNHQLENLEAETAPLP
T1 sequence (P34975 whole entry): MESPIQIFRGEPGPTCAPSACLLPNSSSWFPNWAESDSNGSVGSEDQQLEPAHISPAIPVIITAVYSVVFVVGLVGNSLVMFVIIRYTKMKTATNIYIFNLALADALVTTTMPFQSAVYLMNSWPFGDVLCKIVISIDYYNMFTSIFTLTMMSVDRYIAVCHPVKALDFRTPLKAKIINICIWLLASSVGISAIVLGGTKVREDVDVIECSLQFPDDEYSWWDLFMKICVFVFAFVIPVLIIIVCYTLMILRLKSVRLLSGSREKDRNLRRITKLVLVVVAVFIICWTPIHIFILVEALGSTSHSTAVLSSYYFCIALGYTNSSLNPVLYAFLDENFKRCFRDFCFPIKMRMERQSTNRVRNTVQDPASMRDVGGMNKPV

Take “methionine enkephalin [reference compound]”: in series [1], the “dilation response in presence of naloxone” value is recorded as “blocked the dilation effects” and the “dilation response in presence of norbinaltorphimine” value is “blocked the dilation effects”.
For `CC1(C)Oc2ccc(C#N)cc2C(N2CCCC2=O)C1O` (stereo not drawn) [cromakalim, reference compound], the “dilation response in presence of glibenclamide” value in series [1] is recorded as “blocked the dilation in response to cromakalim”.
For `COC(=O)[C@@H]1C[C@H](OC(=O)c2ccccc2)C(=O)[C@H]2[C@@]1(C)CC[C@H]1C(=O)O[C@H](c3ccoc3)C[C@]21C` [herkinorin], the Ki in series [2] came out at 0.184 µM. Besides, in series [3], the “selectivity for mu over delta receptors” value is given as “approximately 98 fold” and the “selectivity for mu over kappa receptors” value is “approximately 8 fold”. Besides, in series [4] (10 min after administration), the “cAMP levels in the CSF” value is “significantly increased cAMP levels in the CSF”. In addition, in series [4] (pig, in vivo), the “elevated cAMP levels with NTP” value was “blocked by NTP” and the “elevated cAMP levels with β-FNA” value is “not affected after β-FNA administration”. Moreover, in series [5], the “concentration required to effectively dilate pial arteries” value stood at 0.1 nM, the “dilation in presence of NTP” value is recorded as “totally abolished by norbinaltorphimine”, the “dilation in presence of Rp-cAMPS” value was “blunted herkinorin-mediated pial artery dilation” and the “dilation in presence of β-FNA” value is on record as “not affected by β-FNA”. In addition, in series [5], the “pial artery diameter dilation” value was 10.6% and 17.8%; the systemic blood pressure entry is reported as “without significant systemic blood pressure variation”. In series [6] (HEK cells over-expressing receptor), this molecule yielded a Ki of 0.045 µM. Also, in series [6] (mu stronger than kappa), the “binding affinity to mu receptor relative to kappa receptor” value was “approximately 4 fold”.
On to `O=c1[nH]c2cc(C(F)(F)F)ccc2n1-c1cc(C(F)(F)F)ccc1O` [NS1619, reference compound], for which the “dilation response in presence of iberiotoxin” value in series [1] is recorded as “blocked the dilation effects of NS1619”.
As for `CC(C)NCC(O)c1ccc(O)c(O)c1` (stereo not drawn) [isoproterenol, reference compound], in series [1], the “dilation response in presence of naloxone” value is listed as “unaffected” and the “dilation response in presence of norbinaltorphimine” value is “unaffected”. Besides, in series [7], the “pial artery response to the agent before and after HI” value is on record as “no change was observed”. Also, in series [5], the “dilation in presence of NTP” value is “unchanged by either NTP or β-FNA” and the “dilation in presence of β-FNA” value is given as “unchanged by either NTP or β-FNA”. Moreover, the “pial artery response to the agent before and after hypoxia/ischemia” value in series [8] is listed as “unchanged in all groups”.
